Test results reported in US20240150358A1, “PURINES AND METHODS OF THEIR USE” (Kineta, Inc., priority 2020, published 2024).

Biological target: full-length human PIKFYVE (Homo sapiens (Human), UniProt Q9Y2I7, L932S/Q1183K/Q995L/S1033A/S696N/T998S)
Assay: PIKfyve biochemical assay (ADP-Glo Kinase assay, Carna Biosciences)
Settings: ADP-Glo, GST-PIKFYVE, 10 μM to 3 nM; read-out: hPIKfyve IC50
Description: (§1) PIKfyve Biochemical Assay. The biochemical PIKFyve inhibition assays were run by Carna Biosciences according to proprietary methodology based on the Promega ADP-Glo™ Kinase assay. […] GST-PIKFYVE was purified by using glutathione sepharose chromatography and used in an ADP-Glo™ Kinase assay (Promega). Reactions were set up by adding the test compound solution, substrate solution, ATP solution and kinase solution, each at 4× final concentrations. Reactions were prepared with assay buffer (50 mM MOPS, 1 mM DTT, pH7.2), mixed, and incubated in black 384 well polystyrene plates for 1 hour at room temperature. ADPGlo™ reagent was then added for 40 minutes, followed by kinase detection reagent for an additional 40 minutes. The kinase activity was evaluated by detecting relative light units on a luminescence plate reader. Samples were run in duplicate from 10 μM to 3 nM. […] IC50 values were calculated from concentration vs % inhibition curves by fitting to a four-parameter logistic curve.
as §1, with “The” for “PIKfyve Biochemical Assay. The”, “ADP-Glo™” for “ADPGlo™”, “uM” for “μM”, “curve. […]” for “curve.”

full-length human PIKFYVE, sequence (Q9Y2I7 whole entry S696N/L932S/Q995L/T998S/S1033A/Q1183K): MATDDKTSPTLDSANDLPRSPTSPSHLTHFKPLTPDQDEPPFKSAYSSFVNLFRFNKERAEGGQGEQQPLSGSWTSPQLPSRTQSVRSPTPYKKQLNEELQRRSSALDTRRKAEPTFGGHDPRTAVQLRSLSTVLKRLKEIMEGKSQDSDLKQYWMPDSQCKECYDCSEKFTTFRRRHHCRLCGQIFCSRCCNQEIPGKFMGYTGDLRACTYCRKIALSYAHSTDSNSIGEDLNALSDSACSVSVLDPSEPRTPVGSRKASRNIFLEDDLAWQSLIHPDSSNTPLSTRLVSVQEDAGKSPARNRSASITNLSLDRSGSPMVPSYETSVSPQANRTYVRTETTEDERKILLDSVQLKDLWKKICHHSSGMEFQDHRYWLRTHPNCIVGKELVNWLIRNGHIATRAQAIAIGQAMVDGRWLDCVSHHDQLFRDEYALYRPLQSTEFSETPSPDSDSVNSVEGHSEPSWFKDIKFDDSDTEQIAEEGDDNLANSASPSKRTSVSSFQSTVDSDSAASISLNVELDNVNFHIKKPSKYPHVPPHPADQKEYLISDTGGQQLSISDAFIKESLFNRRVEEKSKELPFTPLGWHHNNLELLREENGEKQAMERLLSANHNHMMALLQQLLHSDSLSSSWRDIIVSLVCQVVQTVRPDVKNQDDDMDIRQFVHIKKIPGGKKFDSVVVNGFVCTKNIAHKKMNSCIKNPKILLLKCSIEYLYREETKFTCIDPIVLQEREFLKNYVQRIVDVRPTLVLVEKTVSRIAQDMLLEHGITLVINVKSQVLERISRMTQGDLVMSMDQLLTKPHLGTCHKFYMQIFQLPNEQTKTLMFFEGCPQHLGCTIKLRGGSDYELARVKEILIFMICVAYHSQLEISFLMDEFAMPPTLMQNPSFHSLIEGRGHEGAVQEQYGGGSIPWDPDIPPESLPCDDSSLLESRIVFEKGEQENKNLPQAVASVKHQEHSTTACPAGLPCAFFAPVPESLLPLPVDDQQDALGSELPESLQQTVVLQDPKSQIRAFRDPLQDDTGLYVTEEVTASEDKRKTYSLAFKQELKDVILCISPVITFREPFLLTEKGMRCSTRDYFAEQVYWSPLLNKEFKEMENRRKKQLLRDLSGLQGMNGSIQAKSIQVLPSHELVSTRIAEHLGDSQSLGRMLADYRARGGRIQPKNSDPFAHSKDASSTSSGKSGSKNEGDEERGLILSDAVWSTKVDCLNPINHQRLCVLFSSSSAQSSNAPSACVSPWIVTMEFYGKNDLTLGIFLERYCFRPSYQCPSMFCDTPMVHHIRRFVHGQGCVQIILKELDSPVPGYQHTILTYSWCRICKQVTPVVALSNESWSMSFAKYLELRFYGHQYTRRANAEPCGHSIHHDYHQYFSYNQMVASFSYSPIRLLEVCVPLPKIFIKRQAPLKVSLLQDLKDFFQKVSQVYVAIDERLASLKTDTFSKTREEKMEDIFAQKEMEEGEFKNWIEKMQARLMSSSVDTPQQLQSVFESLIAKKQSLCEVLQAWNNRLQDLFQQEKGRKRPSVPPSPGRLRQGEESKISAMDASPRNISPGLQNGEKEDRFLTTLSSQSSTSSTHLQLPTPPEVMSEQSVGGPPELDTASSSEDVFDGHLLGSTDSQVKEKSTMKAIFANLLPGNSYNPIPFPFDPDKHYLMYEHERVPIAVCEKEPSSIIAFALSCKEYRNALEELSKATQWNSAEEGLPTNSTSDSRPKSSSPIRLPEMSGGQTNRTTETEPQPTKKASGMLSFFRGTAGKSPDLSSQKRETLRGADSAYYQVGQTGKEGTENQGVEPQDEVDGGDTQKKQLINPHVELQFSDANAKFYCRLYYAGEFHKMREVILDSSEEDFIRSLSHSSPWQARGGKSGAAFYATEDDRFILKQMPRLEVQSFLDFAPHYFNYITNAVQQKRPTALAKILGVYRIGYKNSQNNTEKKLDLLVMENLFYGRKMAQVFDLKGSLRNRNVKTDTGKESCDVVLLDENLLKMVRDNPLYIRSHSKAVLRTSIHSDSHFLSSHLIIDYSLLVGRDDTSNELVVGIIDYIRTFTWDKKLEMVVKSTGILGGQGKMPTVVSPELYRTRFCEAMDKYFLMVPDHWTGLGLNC

| Compound | IC50 |
| --- | --- |
| c1cc(-c2nc3c(N4CCOCC4)nc(-n4ccc(C5CCCNC5)n4)nc3[nH]2)ccn1 (stereo not drawn) [Compound 22] | 10 to 100 nM |
| Cn1c(-c2ccncc2)nc2c(N3CCOCC3)nc(-n3nc(C4CCCCC4)[nH]c3=O)nc21 [Compound 50, 3-cyclohexyl-1-[9-methyl-6-(morpholin-4-yl)-8-(pyridin-4-yl)-9H-purin-2-yl]-4,5-dihydro-1H-1,2,4-triazol-5-one] | 100 to 1000 nM |
| Cn1c(C2CN(C(=O)OC(C)(C)C)C2)nc2c(N3CCOCC3)nc(-n3ccc(-c4ccccc4)n3)nc21 [Compound 13, tert-butyl 3-(9-methyl-6-morpholino-2-(3-phenyl-1H-pyrazol-1-yl)-9H-purin-8-yl)azetidine-1-carboxylate] | 10 to 100 nM |
| c1ccc(-c2nccc(-c3nc(N4CCOCC4)c4sc(-c5ccncc5)nc4n3)n2)cc1 [Compound 125] | 100 to 1000 nM |
| Cn1c(C2CCOCC2)nc2c(N3CCOCC3)nc(-c3noc(-c4ccccc4)n3)nc21 [Compound 89, 4-(9-methyl-2-(5-phenyl-1,2,4-oxadiazol-3-yl)-8-(tetrahydro-2H-pyran-4-yl)-9H-purin-6-yl)morpholine] | 100 to 1000 nM |
| Cn1c(-c2ccncc2)nc2c(N3CCOCC3)nc(-c3ccc(Cl)cn3)nc21 [Compound 98, 4-(2-(5-chloropyridin-2-yl)-9-methyl-8-(pyridin-4-yl)-9H-purin-6-yl)morpholine] | 10 to 100 nM |
| Cn1c(C2=CCOCC2)nc2c(N3CCOCC3)nc(-n3ccc(-c4ccccc4)n3)nc21 [Compound 14] | 10 to 100 nM |
| CN1CC(c2nc3c(N4CCOCC4)nc(-n4ccc(-c5ccccc5)n4)nc3n2C)C1 [Compound 81, 4-(9-methyl-8-(1-methylazetidin-3-yl)-2-(3-phenyl-1H-pyrazol-1-yl)-9H-purin-6-yl)morpholine] | 100 to 1000 nM |
| Cn1c(-c2ccncc2)nc2c(N3CCOCC3)nc(-c3ccnc(C(F)(F)F)n3)nc21 [Compound 94, 4-(9-methyl-8-(pyridin-4-yl)-2-(2-(trifluoromethyl)pyrimidin-4-yl)-9H-purin-6-yl)morpholine] | 10 to 100 nM |
| Cn1c(-c2ccncc2)nc2c(N3CCOCC3)nc(-c3ccc4c(c3)OCCO4)nc21 [Compound 45] | 10 to 100 nM |
| c1ccc(-n2ccc(-c3nc(N4CCOCC4)c4cc(-c5ccncc5)sc4n3)n2)cc1 [Compound 124] | 10 to 100 nM |
| CN1CCC(c2nc3c(N4CCOCC4)nc(-n4ccc(-c5ccccc5)n4)nc3n2C)CC1 [Compound 9] | 100 to 1000 nM |
| Cn1c(-c2ccncc2)nc2c(N3CCOCC3)ncnc21 [Compound 8] | 100 to 1000 nM |
| Cn1c(-c2ccncc2)nc2c(N3CCOCC3)nc(-n3ccc(C4CCCN(C(=O)OC(C)(C)C)C4)n3)nc21 (stereo not drawn) [Compound 29] | 100 to 1000 nM |
| CS(=O)(=O)N1CCN(Cc2cc3c(N4CCOCC4)nc(-c4cccc5[nH]ncc45)nc3s2)CC1 [Compound 117] | 100 to 1000 nM |
| Cn1c(-c2ccncc2)nc2c(N3CCOCC3)nc(-c3ccn(C4CCCNC4)n3)nc21 (stereo not drawn) [Compound 41] | 100 to 1000 nM |
| CCn1c(-c2ccncc2)nc2c(N3CCOCC3)nc(-n3ccc(-c4ccccc4)n3)nc21 [Compound 5] | 10 to 100 nM |
| Cn1c(-c2ccncc2)nc2c(N3CCOCC3)nc(-n3ccc(C4CCCNC4)n3)nc21 (stereo not drawn) [Compound 17] | 100 to 1000 nM |
| Cn1c(-c2ccncc2)nc2c(N3CCOCC3)nc(C3CC3)nc21 [Compound 110, 4-(2-cyclopropyl-9-methyl-8-(pyridin-4-yl)-9H-purin-6-yl)morpholine] | < 10 nM |

| Compound | IC50 |
| --- | --- |
| Cn1c(C2CCOCC2)nc2c(N3CCOCC3)nc(-n3ccc(-c4ccccc4)n3)nc21 [Compound 12] | 100 to 1000 nM |
| Cn1c(C2CCNCC2)nc2c(N3CCOCC3)nc(-n3ccc(-c4ccccc4)n3)nc21 [Compound 11] | 100 to 1000 nM |
| Cc1cccc(/C=N/Nc2nc(N3CCOCC3)c3nc(-c4ccncc4)oc3n2)c1 [Compound 120] | < 10 nM |
| Cn1c(-c2ccncc2)nc2c(N3CCOCC3)nc(-n3ccc(C4CCNC4)n3)nc21 (stereo not drawn) [Compound 38] | 100 to 1000 nM |
| Cn1c(C2CCNCC2)nc2c(N3CCOCC3)nc(-c3ccc4c(c3)OCCO4)nc21 [Compound 113, 4-(2-(2,3-dihydrobenzo[b][1,4]dioxin-6-yl)-9-methyl-8-(piperidin-4-yl)-9H-purin-6-yl)morpholine] | < 10 nM |
| Cn1c(C2CNC2)nc2c(N3CCOCC3)nc(-n3ccc(-c4ccccc4)n3)nc21 [Compound 83, 4-(8-(azetidin-3-yl)-9-methyl-2-(3-phenyl-1H-pyrazol-1-yl)-9H-purin-6-yl)morpholine] | 10 to 100 nM |
| Cn1c(-c2ccncc2)nc2c(N3CCOCC3)nc(-c3nccc(C4CC4)n3)nc21 [Compound 103, 4-(2-(4-cyclopropylpyrimidin-2-yl)-9-methyl-8-(pyridin-4-yl)-9H-purin-6-yl)morpholine] | 10 to 100 nM |
| Cn1ccc(-c2nc(N3CCOCC3)c3nc(-c4ccncc4)n(C)c3n2)n1 [Compound 48] | 100 to 1000 nM |
| Cn1c(-c2ccncc2)nc2c(N3CCOCC3)nc(-n3ccc(-c4ccncc4)n3)nc21 [Compound 27] | 10 to 100 nM |
| Cn1c(-c2ccncc2)nc2c(N3CCOCC3)nc(-n3ccc(C(F)(F)F)n3)nc21 [Compound 100, 4-(9-methyl-8-(pyridin-4-yl)-2-(3-(trifluoromethyl)-1H-pyrazol-1-yl)-9H-purin-6-yl)morpholine] | < 10 nM |
| CN1CCCC(c2nc(-c3nc(N4CCOCC4)c4nc(-c5ccncc5)n(C)c4n3)no2)C1 (stereo not drawn) [Compound 30] | 100 to 1000 nM |
| FC(F)n1c(-c2ccncc2)nc2c(N3CCOCC3)nc(-c3ccnc(-c4ccccc4)n3)nc21 [Compound 105, 4-(9-(difluoromethyl)-2-(2-phenylpyrimidin-4-yl)-8-(pyridin-4-yl)-9H-purin-6-yl)morpholine] | 1000 to 10000 nM |
| Cn1c(-c2ccncc2)nc2c(N3CCOCC3)nc(-c3cccc(C4CCN(C(=O)OC(C)(C)C)CC4)n3)nc21 [Compound 4] | 100 to 1000 nM |
| Cn1c(-c2ccncc2)nc2c(N3CCOCC3)nc(-c3noc(C4CCCNC4)n3)nc21 (stereo not drawn) [Compound 31] | 100 to 1000 nM |
| COc1ccc(-c2nc(N3CCOCC3)c3nc(-c4ccncc4)n(C)c3n2)cc1OC [Compound 106, 4-(2-(3,4-dimethoxyphenyl)-9-methyl-8-(pyridin-4-yl)-9H-purin-6-yl)morpholine] | < 10 nM |
| Cn1c(-c2ccncc2)nc2c(N3CCOCC3)nc(-n3ccc(-c4cccnc4)n3)nc21 [Compound 7, 9-methyl-6-(morpholin-4-yl)-2-[3-(pyridin-3-yl)-1H-pyrazol-1-yl]-8-(pyridin-4-yl)-9H-purine] | 10 to 100 nM |
| Cn1c(-c2ccncc2)nc2c(N3CCOCC3)nc(-c3noc(C4CCCN(C(=O)OC(C)(C)C)C4)n3)nc21 (stereo not drawn) [Compound 33, tert-butyl 3-{3-[9-methyl-6-(morpholin-4-yl)-8-(pyridin-4-yl)-9H-purin-2-yl]-1,2,4-oxadiazol-5-yl}piperidine-1-carboxylate] | 100 to 1000 nM |
| Cn1c(-c2ccncc2)nc2c(N3CCOCC3)nc(-c3ccnc(C4CCCNC4)n3)nc21 (stereo not drawn) [Compound 95, 4-(9-methyl-2-(2-(piperidin-3-yl)pyrimidin-4-yl)-8-(pyridin-4-yl)-9H-purin-6-yl)morpholine] | 100 to 1000 nM |

Same assay, conditions: values plotted in FIG. 7; read-out: PIKFYVE Biochemistry (IC50)

| Compound | IC50 |
| --- | --- |
| O=c1ccn(Cc2nc(N3CCOCC3)cc(-n3nccc3-c3ccccc3)n2)cc1 | > 10000 nM |
| O=c1c(CCOc2cccnc2)cc2ncncc2n1-c1ccccc1 | > 10000 nM |
